Measurements published in the NIST ThermoML archive (doi:10.1016/j.fluid.2007.06.017).
± gives the expanded uncertainty stated by the source.

Settings: Crystal; DTA

SMILES: CCCCCCCCCCCCCC[P+](CCCCCC)(CCCCCC)CCCCCC.O=S(=O)([N-]S(=O)(=O)C(F)(F)F)C(F)(F)F
- Normal melting temperature: 33.00 ± 1 °C
